A word on the IC50: it is the concentration that inhibits the measured activity by half. Lower therefore signals greater potency in that assay.

For this experiment, the target named is T1, menin-MLL interaction (Homo sapiens, UniProt O00255).
T1 sequence (O00255 1-610): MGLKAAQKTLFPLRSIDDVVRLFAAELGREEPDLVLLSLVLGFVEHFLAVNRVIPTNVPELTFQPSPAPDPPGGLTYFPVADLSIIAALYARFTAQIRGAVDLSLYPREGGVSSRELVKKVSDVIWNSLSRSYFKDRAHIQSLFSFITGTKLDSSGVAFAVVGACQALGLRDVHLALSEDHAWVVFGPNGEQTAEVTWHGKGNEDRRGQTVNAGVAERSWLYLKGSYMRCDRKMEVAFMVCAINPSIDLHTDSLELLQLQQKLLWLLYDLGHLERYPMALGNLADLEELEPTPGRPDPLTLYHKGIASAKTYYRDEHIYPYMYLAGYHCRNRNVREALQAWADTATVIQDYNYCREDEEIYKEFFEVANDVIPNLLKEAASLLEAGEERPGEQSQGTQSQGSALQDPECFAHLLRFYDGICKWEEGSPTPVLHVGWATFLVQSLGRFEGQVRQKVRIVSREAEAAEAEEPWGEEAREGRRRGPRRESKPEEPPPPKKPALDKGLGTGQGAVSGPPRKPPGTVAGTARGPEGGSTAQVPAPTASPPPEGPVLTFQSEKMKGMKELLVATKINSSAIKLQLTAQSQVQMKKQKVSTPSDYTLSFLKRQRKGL
Kind of experiment: biochemical.
Text: Compounds that inhibit the interaction decrease the fluorescence anisotropy which is being used as a read-out for compound screening and for IC50 determination.
In turn, `CCCCC(O)(CO)Cn1c(C#N)cc2c(C)c(CN3CCC(Nc4ncnc5sc(CC(F)(F)F)cc45)CC3)ccc21` (stereo not shown) [Compound 338] yielded an IC50 of less than 100 nM. Next, `Cc1c(CN2CCC(Nc3ncnc4sc(CC(F)(F)F)cc34)CC2)ccc2c1cc(C#N)n2CCN1CCN(C(=O)CCC2CCCCC2)CC1` [Compound 339]: less than 100 nM; `Cc1c(CN2CCC(Nc3ncnc4sc(CC(F)(F)F)cc34)CC2)ccc2c1cc(C#N)n2CCN1CCN(C(=O)Cc2ccccc2)CC1` [Compound 340]: less than 100 nM; `Cc1c(CN2CCC(Nc3ncnc4sc(CC(F)(F)F)cc34)CC2)ccc2c1cc(C#N)n2CCN1CCN(C(=O)CCc2ccccc2)CC1` [Compound 341]: less than 100 nM. Then `Cc1c(CN2CCC(Nc3ncnc4sc(CC(F)(F)F)cc34)CC2)ccc2c1cc(C#N)n2CCN1CCN(C(=O)CCC(F)(F)F)CC1` [Compound 342], with less than 100 nM; and `Cc1c(CN2CCC(Nc3ncnc4sc(CC(F)(F)F)cc34)CC2)ccc2c1cc(C#N)n2CCN1CCN(C(=O)CC2CCCCC2)CC1` [Compound 343], with less than 100 nM.

In turn, `Cc1c(CN2CCC(Nc3ncnc4sc(CC(F)(F)F)cc34)CC2)ccc2c1cc(C#N)n2CCN1CCN(C(=O)CCC2CC2)CC1` [Compound 344] showed an IC50 of less than 100 nM. Then `Cc1c(CN2CCC(Nc3ncnc4sc(CC(F)(F)F)cc34)CC2)ccc2c1cc(C#N)n2Cc1cc(Cc2ccncc2)[nH]n1` [Compound 345], with less than 100 nM; and `Cc1c(CN2CCC(Nc3ncnc4sc(CC(F)(F)F)cc34)CC2)ccc2c1cc(C#N)n2CC(O)(CO)CCC1CCCCC1` (stereo not shown) [Compound 346], with less than 100 nM. Next, `Cc1c(CN2CCC(Nc3ncnc4sc(CC(F)(F)F)cc34)CC2)ccc2c1cc(C#N)n2Cc1cc(Cc2ccc(=O)[nH]c2)[nH]n1` [Compound 347]: less than 100 nM; `Cc1c(CN2CCC(Nc3ncnc4sc(CC(F)(F)F)cc34)CC2)ccc2c1cc(C#N)n2CC(O)(CO)CC1CCCCC1` (stereo not shown) [Compound 348]: less than 100 nM; `Cc1c(CN2CCC(Nc3ncnc4sc(CC(F)(F)F)cc34)CC2)ccc2c1cc(C#N)n2Cc1cnc[nH]1` [Compound 349]: less than 100 nM. Then `Cc1nc[nH]c1Cn1c(C#N)cc2c(C)c(CN3CCC(Nc4ncnc5sc(CC(F)(F)F)cc45)CC3)ccc21` [Compound 350], with less than 100 nM; and `Cc1ncc(Cn2c(C#N)cc3c(C)c(CN4CCC(Nc5ncnc6sc(CC(F)(F)F)cc56)CC4)ccc32)[nH]1` [Compound 351], with less than 100 nM. `N#Cc1cc2c(C=O)c(CN3CCC(Nc4ncnc5sc(CC(F)(F)F)cc45)CC3)ccc2n1Cc1cn[nH]c1` [Compound 352] showed an IC50 of less than 100 nM. `Cc1c(CN2CCC(Nc3ncnc4sc(CC(F)(F)F)cc34)CC2)ccc2c1cc(C#N)n2Cc1ncco1` [Compound 353] registered a concentration for half-maximal inhibition (IC50) of less than 100 nM. Next, `Cc1c(CN2CCC(Nc3ncnc4sc(CC(F)(F)F)cc34)CC2)ccc2c1cc(C#N)n2CCS(C)(=O)=O` [Compound 354]: less than 100 nM.

With `Cc1c(CN2CCC(Nc3ncnc4sc(CC(F)(F)F)cc34)CC2)ccc2c1cc(C#N)n2CCN1CCNC(=O)C1` [Compound 355], the concentration for half-maximal inhibition (IC50) is less than 100 nM. Next, `Cc1c(CN2CCC(Nc3ncnc4sc(CC(F)(F)F)cc34)CC2)ccc2c1cc(C#N)n2CCN1CCN(C)C(=O)C1` [Compound 356]: less than 100 nM; `Cc1c(CN2CCC(Nc3ncnc4sc(CC(F)(F)F)cc34)CC2)ccc2c1cc(C#N)n2CCN1CCN(C(C)C)CC1` [Compound 357]: less than 100 nM. Next, `Cc1c(CN2CCC(Nc3ncnc4sc(CC(F)(F)F)cc34)CC2)ccc2c1cc(C#N)n2CC(O)CN1CCNCC1` (stereo not shown) [Compound 358]: less than 100 nM; `Cc1c(CN2CCC(Nc3ncnc4sc(CC(F)(F)F)cc34)CC2)ccc2c1cc(C#N)n2CCN1CCSCC1` [Compound 360]: less than 100 nM.

`Cc1c(CN2CCC(Nc3ncnc4sc(CC(F)(F)F)cc34)CC2)ccc2c1cc(C#N)n2Cc1cnco1` [Compound 361] had an IC50 of less than 100 nM. Next, `Cc1c(CN2CCC(Nc3ncnc4sc(CC(F)(F)F)cc34)CC2)ccc2c1cc(C#N)n2CCN1CCOC(CO)C1` (stereo not shown) [Compound 362]: less than 100 nM. In the case of `Cc1c(CN2CCC(Nc3ncnc4sc(CC(F)(F)F)cc34)CC2)ccc2c1cc(C#N)n2CCN1CCNC(C(N)=O)C1` (stereo not shown) [Compound 363], the IC50 is less than 100 nM. Then `Cc1c(CN2CCC(Nc3ncnc4sc(CC(F)(F)F)cc34)CC2)ccc2c1cc(C#N)n2CCN1CCN(CC(N)=O)CC1` [Compound 364], with less than 100 nM; and `Cc1cc(Cn2c(C#N)cc3c(C)c(CN4CCC(Nc5ncnc6sc(CC(F)(F)F)cc56)CC4)ccc32)[nH]n1` [Compound 365], with less than 100 nM; and `Cc1c(CN2CCC(Nc3ncnc4sc(CC(F)(F)F)cc34)CC2)ccc2c1cc(C#N)n2CCN1CCN[C@@H](C)C1` [Compound 367], with less than 100 nM. Then `Cc1c(CN2CCC(Nc3ncnc4sc(CC(F)(F)F)cc34)CC2)ccc2c1cc(C#N)n2CCN1CCS(=O)(=O)CC1` [Compound 368], with less than 100 nM; and `Cc1c(CN2CCC(Nc3ncnc4sc(CC(F)(F)F)cc34)CC2)ccc2c1cc(C#N)n2CCN1CCNC(C)C1` (stereo not shown) [Compound 369], with less than 100 nM.

With `CC(=O)NCCC(O)(CO)Cn1c(C#N)cc2c(C)c(CN3CCC(Nc4ncnc5sc(CC(F)(F)F)cc45)CC3)ccc21` (stereo not shown) [Compound 371], the IC50 was less than 100 nM. Next, `Cc1c(CN2CCC(Nc3ncnc4sc(CC(F)(F)F)cc34)CC2)ccc2c1cc(C#N)n2CC(O)(CO)CCn1ccnn1` (stereo not shown) [Compound 373]: less than 100 nM. Then `Cc1c[nH]c(CCC(O)(CO)Cn2c(C#N)cc3c(C)c(CN4CCC(Nc5ncnc6sc(CC(F)(F)F)cc56)CC4)ccc32)n1` (stereo not shown) [Compound 374], with less than 100 nM. Then `Cc1c(CN2CCC(Nc3ncnc4sc(CC(F)(F)F)cc34)CC2)ccc2c1cc(C#N)n2CCN1CCN(S(=O)(=O)N(C)C)CC1` [Compound 375], with less than 100 nM; and `Cc1c(CN2CCC(Nc3ncnc4sc(CC(F)(F)F)cc34)CC2)ccc2c1cc(C#N)n2CCN1CCN(C(=O)N(C)C)CC1` [Compound 376], with less than 100 nM; and `Cc1c(CN2CCC(Nc3ncnc4sc(CC(F)(F)F)cc34)CC2)ccc2c1cc(C#N)n2CCN1CCNC(C(F)(F)F)C1` (stereo not shown) [Compound 378], with less than 100 nM.

`Cc1c(CN2CCC(Nc3ncnc4sc(CC(F)(F)F)cc34)CC2)ccc2c1cc(C#N)n2Cc1cnn(C)c1` [Compound 379] showed a concentration for half-maximal inhibition (IC50) of less than 100 nM. `Cc1c(CN2CCC(Nc3ncnc4sc(CC(F)(F)F)cc34)CC2)ncc2[nH]c(C#N)cc12` [Compound 380] had an IC50 of less than 100 nM.

The compound `N#Cc1cc2c(Cl)c(CN3CCC(Nc4ncnc5sc(CC(F)(F)F)cc45)CC3)ccc2n1Cc1cn[nH]c1` [Compound 381] gave a half-maximal inhibitory concentration (IC50) of less than 100 nM. Then `N#Cc1cc2cc(CN3CCC(Nc4ncnc5sc(CC(F)(F)F)cc45)CC3)c(O)cc2n1Cc1cn[nH]c1` [Compound 382], with less than 100 nM. `COc1cc2[nH]c(C#N)cc2c(C)c1CN1CCC(Nc2ncnc3sc(CC(F)(F)F)cc23)CC1` [Compound 383] showed an IC50 of less than 100 nM. Then `Cc1c(CN2CCC(Nc3ncnc4sc(CC(F)(F)F)cc34)CC2)c(O)cc2[nH]c(C#N)cc12` [Compound 384], with less than 100 nM; and `COc1cc2c(cc(C#N)n2CC(N)=O)c(C)c1CN1CCC(Nc2ncnc3sc(CC(F)(F)F)cc23)CC1` [Compound 385], with less than 100 nM.

For the compound `COc1cc2c(cc(C#N)n2CCO)c(C)c1CN1CCC(Nc2ncnc3sc(CC(F)(F)F)cc23)CC1` [Compound 386], the IC50 was less than 100 nM. As for `Cc1c(CN2CCC(Nc3ncnc4sc(CC(F)(F)F)cc34)CC2)c(O)cc2c1cc(C#N)n2CCO` [Compound 387], the IC50 was less than 100 nM. Next, `Cc1c(CN2CCC(Nc3ncnc4sc(CC(F)(F)F)cc34)CC2)c(O)cc2c1cc(C#N)n2Cc1cn[nH]c1` [Compound 388]: less than 100 nM. In turn, `COc1cc2c(cc(C#N)n2Cc2cn[nH]c2)c(C)c1CN1CCC(Nc2ncnc3sc(CC(F)(F)F)cc23)CC1` [Compound 389] had a concentration for half-maximal inhibition (IC50) of less than 100 nM. Next, `COc1cc2c(cc1CN1CCC(Nc3ncnc4sc(CC(F)(F)F)cc34)CC1)cc(C#N)n2Cc1cn[nH]c1` [Compound 390]: less than 100 nM; `Cc1c(CN2CCC(Nc3ncnc4sc(CC(F)(F)F)cc34)CC2)c(O)cc2c1cc(C#N)n2Cc1c[nH]nn1` [Compound 391]: less than 100 nM; `COc1cc2c(cc(C#N)n2Cc2c[nH]nn2)c(C)c1CN1CCC(Nc2ncnc3sc(CC(F)(F)F)cc23)CC1` [Compound 392]: less than 100 nM. Then `N#Cc1cc2cc(CN3CCC(Nc4ncnc5sc(CC(F)(F)F)cc45)CC3)ccc2n1CCN1CCNCC1` [Compound 393], with less than 100 nM; and `CCC(=O)N1CCN(CCn2c(C#N)cc3cc(CN4CCC(Nc5ncnc6sc(CC(F)(F)F)cc56)CC4)ccc32)CC1` [Compound 394], with less than 100 nM.

For the compound `CS(=O)(=O)OCCn1c(C#N)cc2cc(CN3CCC(Nc4ncnc5sc(CC(F)(F)F)cc45)CC3)ccc21` [Compound 395], the IC50 is less than 100 nM.

`CCC(=O)N1CCN(CCCn2c(C#N)cc3cc(CN4CCC(Nc5ncnc6sc(CC(F)(F)F)cc56)CC4)ccc32)CC1` [Compound 396] had an IC50 of less than 100 nM. `N#Cc1cc2c(OC(F)F)c(CN3CCC(Nc4ncnc5sc(CC(F)(F)F)cc45)CC3)ccc2[nH]1` [Compound 408] displayed an IC50 of 100 to 500 nM.

These data come from patent publication US9505781B2, “Compositions comprising thienopyrimidine and thienopyridine compounds and methods of use thereof” (The Regents of the University of Michigan, priority 2013, dated 2016).
